Results from publication PMC4977651, “Molecular features of biguanides required for targeting of mitochondrial respiratory complex I and activation of AMP-kinase” (BMC Biology, 2016).
Like-named read-outs stand apart in the source and are kept apart here.

Columns and labels:
[1] = biological target: bovine heart mitochondrial membranes (complex I) (Bos taurus, UniProt P03887+P03898+P17694+P42026); experiment: NADH:O2 oxidoreduction by bovine heart mitochondrial membranes (complexes I-III-IV); assay type: biochemical
Sequence of bovine heart mitochondrial membranes (complex I) (P42026 38-216): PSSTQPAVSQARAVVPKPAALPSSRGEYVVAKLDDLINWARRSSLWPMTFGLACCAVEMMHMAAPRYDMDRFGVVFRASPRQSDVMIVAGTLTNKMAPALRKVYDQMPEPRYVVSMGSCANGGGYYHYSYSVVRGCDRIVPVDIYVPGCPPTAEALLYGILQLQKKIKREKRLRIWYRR
Sequence of bovine heart mitochondrial membranes (complex I) (P17694 34-463): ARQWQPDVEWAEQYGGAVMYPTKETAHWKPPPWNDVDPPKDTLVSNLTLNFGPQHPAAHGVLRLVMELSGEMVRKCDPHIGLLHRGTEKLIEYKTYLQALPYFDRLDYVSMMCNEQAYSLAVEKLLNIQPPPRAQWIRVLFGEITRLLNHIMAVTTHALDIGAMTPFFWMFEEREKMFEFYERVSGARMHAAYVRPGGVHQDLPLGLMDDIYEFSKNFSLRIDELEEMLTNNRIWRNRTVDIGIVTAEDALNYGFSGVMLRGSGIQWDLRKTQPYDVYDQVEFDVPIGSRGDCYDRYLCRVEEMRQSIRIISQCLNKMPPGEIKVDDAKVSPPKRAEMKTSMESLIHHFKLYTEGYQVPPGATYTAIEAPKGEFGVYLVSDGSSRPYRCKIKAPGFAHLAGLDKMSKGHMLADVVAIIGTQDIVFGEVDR
Sequence of bovine heart mitochondrial membranes (complex I) (P03887 whole entry): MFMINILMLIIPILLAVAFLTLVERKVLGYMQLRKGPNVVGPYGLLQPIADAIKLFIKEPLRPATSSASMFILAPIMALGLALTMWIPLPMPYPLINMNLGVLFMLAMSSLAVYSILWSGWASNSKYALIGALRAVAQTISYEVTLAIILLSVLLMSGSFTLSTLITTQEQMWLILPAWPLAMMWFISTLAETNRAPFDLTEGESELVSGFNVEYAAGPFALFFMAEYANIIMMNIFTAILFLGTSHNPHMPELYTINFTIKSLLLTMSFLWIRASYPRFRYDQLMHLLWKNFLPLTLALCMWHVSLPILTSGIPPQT
Sequence of bovine heart mitochondrial membranes (complex I) (P03898 whole entry): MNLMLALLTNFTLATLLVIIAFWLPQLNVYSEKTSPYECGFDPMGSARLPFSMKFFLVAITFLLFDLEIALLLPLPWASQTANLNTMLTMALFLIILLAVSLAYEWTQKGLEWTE
Method: (§1) Complex I and mitochondrial membranes were prepared from Bos taurus (bovine) heart. Intact mitochondria were isolated from rat liver and mouse heart and liver. Membranes were prepared from mouse heart mitochondria by 5 s bursts of sonication at 4 °C and collected by centrifugation (75,000 × g, 1 h).
(§2) Assays were performed at 32 °C in a SpectraMax 96-well plate reader. NADH:decylubiquinone oxidoreduction by complex I at 0.5 μg mL^−1 was measured in 20 mM Tris-HCl (pH 7.2), 0.15 % soy bean asolectin (Avanti Polar Lipids), and 0.15 % 3-((3-cholamidopropyl)dimethylammonium)-1-propanesulfonate (CHAPS, Merck Chemicals Ltd), with 200 μM decylubiquinone and 200 μM NADH, and monitored using ε340–380(NADH) = 4.81 mM^−1 cm^−1 [23]. Catalysis was initiated by addition of NADH and maximal rates determined by linear regression. NADH:O2 oxidoreduction by membranes was measured similarly but using 5 μg mL^−1 membranes in 10 mM Tris-HCl (pH 7.4) and 250 mM sucrose using 200 μM NADH and supplemented with 0.15 mM horse heart cytochrome c (Sigma-Aldrich Ltd.). Succinate:O2 oxidoreduction was measured using 40 μg mL^−1 membranes in 5 mM succinate in 10 mM Tris-HCl (pH 7.4) as described previously. Control experiments included NaCl (to match the ionic strength) or DMSO, as appropriate.
(§3) Experimental values are reported as mean averages ± standard deviation (SD) of technical replicates for large sample sizes and mean averages ± standard error of the mean (SEM) of technical replicates for small sample sizes. Data were analyzed by the unpaired two-tailed Student’s t test. IC50 values were determined using the standard dose-effect relationship (activity (%) = 100 × IC50 / (IC50 + [inhibitor]^m) with the Hill Slope (m) set to unity for purified complex I) and are reported with 95 % confidence intervals.

[2] = biological target: mouse heart mitochondrial membranes (complex I) (Mus musculus, UniProt P03888+P03899+Q91WD5+Q9DC70); experiment: NADH:O2 oxidoreduction by mouse heart mitochondrial membranes; assay type: biochemical; settings: for LogIC50 (best fit value): log of IC50 in mM
Sequence of mouse heart mitochondrial membranes (complex I) (P03899 whole entry): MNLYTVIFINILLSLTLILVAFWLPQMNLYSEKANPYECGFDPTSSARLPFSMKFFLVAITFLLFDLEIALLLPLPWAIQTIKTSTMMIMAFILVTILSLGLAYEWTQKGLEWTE
Sequence of mouse heart mitochondrial membranes (complex I) (P03888 whole entry): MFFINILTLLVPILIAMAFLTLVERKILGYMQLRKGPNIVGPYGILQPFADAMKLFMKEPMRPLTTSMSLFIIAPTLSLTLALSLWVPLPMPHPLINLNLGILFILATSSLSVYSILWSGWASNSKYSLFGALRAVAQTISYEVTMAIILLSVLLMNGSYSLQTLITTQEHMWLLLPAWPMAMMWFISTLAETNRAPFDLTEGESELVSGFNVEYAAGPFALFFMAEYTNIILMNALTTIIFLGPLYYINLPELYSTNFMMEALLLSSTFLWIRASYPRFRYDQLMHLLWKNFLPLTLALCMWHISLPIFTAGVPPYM
Sequence of mouse heart mitochondrial membranes (complex I) (Q9DC70 36-224): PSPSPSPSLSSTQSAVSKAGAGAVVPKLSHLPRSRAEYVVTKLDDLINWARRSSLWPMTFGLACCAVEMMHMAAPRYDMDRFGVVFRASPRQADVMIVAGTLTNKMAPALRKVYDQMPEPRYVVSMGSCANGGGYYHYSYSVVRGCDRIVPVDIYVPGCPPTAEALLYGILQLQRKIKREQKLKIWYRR
Sequence of mouse heart mitochondrial membranes (complex I) (Q91WD5 34-463): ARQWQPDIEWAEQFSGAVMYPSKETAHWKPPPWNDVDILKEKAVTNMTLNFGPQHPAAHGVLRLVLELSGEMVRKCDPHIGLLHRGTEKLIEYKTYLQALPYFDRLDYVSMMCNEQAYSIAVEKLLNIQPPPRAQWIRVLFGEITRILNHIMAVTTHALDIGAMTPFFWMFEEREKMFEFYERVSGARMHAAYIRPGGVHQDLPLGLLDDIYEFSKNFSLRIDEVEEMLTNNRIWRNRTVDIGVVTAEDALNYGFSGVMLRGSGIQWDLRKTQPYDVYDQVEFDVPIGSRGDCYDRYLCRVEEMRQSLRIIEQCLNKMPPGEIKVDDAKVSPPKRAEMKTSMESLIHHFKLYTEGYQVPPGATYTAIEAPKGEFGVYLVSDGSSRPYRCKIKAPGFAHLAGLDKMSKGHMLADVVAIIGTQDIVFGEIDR
Method: as §1, §2, §3

[3] = test system: HepG2 cells; experiment: Rotenone-sensitive oxygen consumption rate in intact HepG2 cells; assay type: cell-based, human; settings: for rotenone sensitive OCR after 6 hours of biguanide exposure, % control, average / rotenone sensitive OCR after 6 hours of biguanide exposure, average: HEPG2 cells, biguanide at IC50/10; for rotenone sensitive OCR after 6 hours of biguanide exposure, average: OCR normalized to OCR immediately prior to biguanide addition; for inhibition of rotenone-sensitive respiration (in words): intact HepG2 cells, biguanide at IC50/10, monitored for 6 h
Method: 143B (CRL-8303 from ATCC), HepG2 (85011430 from The Health Protection Agency), and MDBK (CCL-22 from ATCC) cells were grown on Dulbecco’s modified Eagle’s medium (DMEM) supplemented with 10 % fetal bovine serum (FBS, Thermo Fisher Scientific) at 37 °C in 5 % CO2. All cells were confirmed as negative for mycoplasma.
Oxygen consumption rates (OCRs) were measured using a Seahorse XF96 extracellular flux analyzer at 37 °C. For intact cell measurements, 1.4 × 10^4 143B, HepG2, or MDBK cells were plated (per well) in DMEM containing 10 % FBS into Seahorse Bioscience Inc. XF96 plates and incubated for ~12 h at 37 °C in 5 % CO2. Then, the medium was exchanged for assay buffer containing DMEM, 4.5 g L^−1 glucose, 1 mM pyruvate, 32 mM NaCl, 2 mM GlutaMAX, 15 mg L^−1 phenol red, and 20 mM HEPES (pH 7.4 at 37 °C) and the cells placed in a CO2-free incubator at 37 °C for 30 min. Basal oxygen consumption rates were established before the addition of biguanides at one-tenth of their IC50 (IC50/10), and followed for ~ 6 h before the addition of rotenone (2 μM).
Rotenone-sensitive OCRs were calculated by subtracting the rotenone-insensitive rates (determined at the end of the experiment). OCRs were normalized by dividing by the OCR recorded immediately prior to the addition of biguanide. For rate of uptake calculations, the OCRs at time points after biguanide addition were divided by the OCRs at the same time points in control experiments. Data from wells with failed port injections were excluded from the analyses. The respiratory control ratio (RCR) values (state III versus state IV respiration) were ~11 and ~6 for permeabilized MDBK and 143B cells, respectively.

[4] = test system: AMPK-α (phospho-Thr172); experiment: AMPK activation, western blot of phospho-AMPK-α in MDBK cells; assay type: cell-based, Bos taurus; settings: for p-alpha, average normalised to control: Averages of experiments 1-3, 18 hours; for p-alpha: band intensity
Method: MDBK cells were seeded at 1 × 10^6 cells per 6 cm dish in DMEM containing 10 % FBS. […] After 18 h cells were harvested by a rapid lysis procedure: cells were rinsed with PBS, then lysed using ice-cold buffer containing 50 mM HEPES, 1 mM EDTA, 10 % glycerol, 50 mM NaF, 5 mM sodium pyrophosphate, 1 % Triton-X100, 1 mM dithiothreitol (DTT), and a protease inhibitor cocktail (Roche). The cell lysate was centrifuged at 14,000 × g for 20 min at 4 °C and the protein concentration of the supernatant determined by bicinchoninic acid assay. The lysate was analyzed using Novex 3–12 % bis-Tris gels run in 3-(N-morpholino)propanesulfonic acid (MOPS) buffer (20 μg of protein per lane) followed by transfer to low fluorescence polyvinylidene fluoride membranes by wet transfer. Primary rabbit antibodies for AMPK-β (57C12), AMPK-α (phospho-Thr172) (40H9), and acetyl-coA carboxylase (phospho-Ser79) (Cell Signaling Technology) were incubated overnight with the membrane (1:1000 dilution) in Odyssey blocking buffer at 4 °C. A fluorescent secondary antibody was used (IRDYE800CW from LI-COR Biosciences, 1:20,000 dilution) with a LI-COR Odyssey imaging system.

[5] = log of concentration in mM; sample given as Bovine heart mitochondrial membranes; Prism variable slope fit, Bottom 0, Top 100
[6] = sample given as Bovine heart mitochondrial membranes; Prism variable slope fit, Bottom 0, Top 100

## NC(N)=NC(N)=NCCc1ccc(Cl)cc1 [compound 1, 2-[2-(4-chlorophenyl)ethyl]-1-(diaminomethylidene)guanidine]
[1]; bovine heart mitochondrial membranes; inhibitor 0.025 mM; read-out: average % (rate, % of no-inhibitor control)
  remaining activity at 25 µM: 91.4%
[1]; bovine heart mitochondrial membranes; inhibitor 0.05 mM; read-out: average % (rate, % of no-inhibitor control)
  remaining activity at 50 µM: 77.5%
[1]; bovine heart mitochondrial membranes; inhibitor 0.12 mM; read-out: average % (rate, % of no-inhibitor control)
  remaining activity at 120 µM: 66.8%
[1]; bovine heart mitochondrial membranes; inhibitor 0.25 mM; read-out: average % (rate, % of no-inhibitor control)
  remaining activity at 250 µM: 57.4%
[1]; bovine heart mitochondrial membranes; inhibitor 0.50 mM; read-out: average % (rate, % of no-inhibitor control)
  remaining activity at 500 µM: 44.1%
[1]; bovine heart mitochondrial membranes; inhibitor 1.00 mM; read-out: average % (rate, % of no-inhibitor control)
  remaining activity at 1000 µM: 35.1%
[1]; bovine heart mitochondrial membranes; inhibitor 2.00 mM; read-out: average % (rate, % of no-inhibitor control)
  remaining activity at 2000 µM: 28.9%
[1]; [5]
  LogIC50 (best fit value): -0.4001
[1]; sample given as Bovine heart mitochondrial membranes; Prism log(inhibitor) vs. response variable slope fit (four parameters), Bottom 0, Top 100; read-out: IC50 (best fit value)
  IC50: 398 µM
[1]; [6]
  HillSlope (best fit value): -0.6555
[2]; Prism variable slope fit
  HillSlope (best fit value): -0.8311
  LogIC50 (best fit value): -0.3323
[2]; Prism variable slope fit, Bottom 0, Top 100, read-out: IC50 (best fit value)
  IC50: 465 µM
[2]; inhibitor 0.13 mM, read-out: average % (rate, % of no-inhibitor control)
  remaining activity at 130 µM: 75.2%
[2]; inhibitor 0.25 mM, read-out: average % (rate, % of no-inhibitor control)
  remaining activity at 250 µM: 62.1%
[2]; inhibitor 0.50 mM, read-out: average % (rate, % of no-inhibitor control)
  remaining activity at 500 µM: 47.6%
[2]; inhibitor 1.00 mM, read-out: average % (rate, % of no-inhibitor control)
  remaining activity at 1000 µM: 36.7%
[2]; inhibitor 2.50 mM, read-out: average % (rate, % of no-inhibitor control)
  remaining activity at 2500 µM: 19.7%
[2]; inhibitor 5.00 mM, read-out: average % (rate, % of no-inhibitor control)
  remaining activity at 5000 µM: 9.86%
[2]; inhibitor 10.00 mM, read-out: average % (rate, % of no-inhibitor control)
  remaining activity at 10000 µM: 8.63%
[3]
  rotenone sensitive OCR after 6 hours of biguanide exposure, % control, average: 4.45 % control
  rotenone sensitive OCR after 6 hours of biguanide exposure, average: 4.59
  inhibition of rotenone-sensitive respiration (in words): inhibit respiration
[4]; 18-h treatment, IC50/10 biguanide concentrations
  AMPK activation (in words): slightly lower activation
[4]
  p-alpha, average normalised to control: 5.54
[4]; Experiment 1, 18 hours
  p-alpha / AMPK beta: 0.63
  p-alpha / AMPK beta normalised to control: 5.05
  p-alpha: 288
[4]; Experiment 2, 18 hours
  p-alpha / AMPK beta: 1.08
  p-alpha / AMPK beta normalised to control: 7.41
  p-alpha: 388
[4]; Experiment 3, 18 hours
  p-alpha / AMPK beta: 0.86
  p-alpha / AMPK beta normalised to control: 4.15
  p-alpha: 220

## N=C(N)NC(N)=Nc1ccccc1 [compound 2, phenyl biguanide]
[1]; [5]
  LogIC50 (best fit value): -0.3757
[1]; read-out: IC50 (best fit value); sample given as Bovine heart mitochondrial membranes; Prism log(inhibitor) vs. response variable slope fit (four parameters), Bottom 0, Top 100
  IC50: 421 µM
[1]; [6]
  HillSlope (best fit value): -0.7595
[2]; Prism variable slope fit
  HillSlope (best fit value): -1.093
  LogIC50 (best fit value): -0.05416
[2]; read-out: IC50 (best fit value), Prism variable slope fit, Bottom 0, Top 100
  IC50: 883 µM
[3]
  rotenone sensitive OCR after 6 hours of biguanide exposure, % control, average: 91.28 % control
  rotenone sensitive OCR after 6 hours of biguanide exposure, average: 94.14
  inhibition of rotenone-sensitive respiration (in words): do not
[4]
  p-alpha, average normalised to control: 1.18
[4]; Experiment 1, 18 hours
  p-alpha / AMPK beta: 0.14
  p-alpha / AMPK beta normalised to control: 1.11
  p-alpha: 64.6
[4]; Experiment 2, 18 hours
  p-alpha / AMPK beta: 0.17
  p-alpha / AMPK beta normalised to control: 1.14
  p-alpha: 57.4
[4]; Experiment 3, 18 hours
  p-alpha / AMPK beta: 0.27
  p-alpha / AMPK beta normalised to control: 1.28
  p-alpha: 57.3
